The target in experiment [1] is T1, Adenosine deaminase (Bos taurus, UniProt P56658).
T1 sequence (P56658 whole entry): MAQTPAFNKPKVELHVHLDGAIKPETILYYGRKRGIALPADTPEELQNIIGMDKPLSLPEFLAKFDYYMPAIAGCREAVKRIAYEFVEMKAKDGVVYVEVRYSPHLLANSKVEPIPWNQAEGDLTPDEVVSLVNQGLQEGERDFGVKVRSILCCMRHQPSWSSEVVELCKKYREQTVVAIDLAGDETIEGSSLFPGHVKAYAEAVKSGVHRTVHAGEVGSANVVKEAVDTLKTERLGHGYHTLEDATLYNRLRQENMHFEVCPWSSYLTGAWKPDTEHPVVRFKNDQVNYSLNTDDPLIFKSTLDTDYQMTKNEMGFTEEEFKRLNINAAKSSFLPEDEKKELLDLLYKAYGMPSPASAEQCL
Description: Inhibitory activity against adenosine deaminase.

For experiment [2], the target named is T1, Adenosine deaminase. As to the kind of experiment: Apparent binding constant against adenosine deaminase.
Experiment [3] has as its target T2, Adenosine deaminase (Bos taurus) (UniProt P56658).
T2 sequence (whole entry): T1 sequence (P56658 whole entry)
As to the kind of experiment: Inhibitory activity of compound at 25 uM against adenosine deaminase.

Results on three compounds are retold here after ChEMBL document CHEMBL1130184, “Effect of a chemical modification on the hydrated adenosine intermediate produced by adenosine deaminase and a model reaction for a potential mechanism of action of 5-aminoimidazole ribonucleotide carboxylase” (J Med Chem, 1997).

`Nc1ccnc2c1ncn2[C@@H]1O[C@H](CO)[C@@H](O)[C@H]1O` registered a Ki in experiment [1] of 0.18 µM.

`O=CNc1cn([C@@H]2O[C@H](CO)[C@@H](O)[C@H]2O)cn1`: the Ki in experiment [2] came out at 40 µM.

With `Nc1ncnc2c1ncn2[C@@H]1O[C@H](CO)[C@@H](O)[C@H]1O`, in experiment [3], the inhibition (in general, the share of the control response that was lost under treatment) was 15%.
